Measurements from ChEMBL document CHEMBL5223103, “FLT3 inhibitors for acute myeloid leukemia: successes, defeats, and emerging paradigms” (RSC Med Chem, 2022).

Assays:
[1] = Growth inhibition of mouse 32D cells harboring FLT3-ITD mutant assessed as growth inhibition by WST assay; type: functional
MOLM-14 = assay: Growth inhibition of human MOLM-14 cells assessed as reduction in cell growth by cell viability assay; type: functional
[2] = Growth inhibition of mouse 32D cells harboring FLT3-ITD-D835Y mutant assessed as growth inhibition WST assay; type: functional
[3] = Growth inhibition of mouse 32D cells harboring FLT3-ITD-Y842H mutant assessed as growth inhibition WST assay; type: functional
Kasumi 1 = assay: Growth inhibition of human Kasumi 1 cells assessed as reduction in cell growth by cell viability assay; type: functional
[4] = Growth inhibition of mouse 32D cells harboring FLT3-D835Y mutant assessed as growth inhibition WST assay; type: functional
[5] = Growth inhibition of mouse 32D cells harboring FLT3-ITD-F691L mutant assessed as growth inhibition WST assay; type: functional
EOL1 = assay: Growth inhibition of human EOL1 cells assessed as reduction in cell growth by cell viability assay; type: functional
[6] = Growth inhibition of mouse 32D cells harboring FLT3-ITD-Y842C mutant assessed as growth inhibition WST assay; type: functional
MOLM-13 [7] = assay: Growth inhibition of human MOLM-13 cells assessed as reduction in cell growth by cell viability assay; type: functional
K562 = assay: Growth inhibition of human K562 cells assessed as reduction in cell growth by cell viability assay; type: functional
MV4-11 [8] = assay: Growth inhibition of human MV4-11 cells assessed as reduction in cell growth by cell viability assay; type: functional
THP-1 = assay: Growth inhibition of human THP-1 cells assessed as reduction in cell growth by cell viability assay; type: functional
BaF3 [9] = assay: Growth inhibition of mouse BaF3 cells transfected with FLT3-D835Y assessed as inhibition of cell growth measured after 48 hrs by MTT assay; type: functional
BaF3 [10] = assay: Growth inhibition of mouse BaF3 cells transfected with FLT3-ITD assessed as inhibition of cell growth measured after 48 hrs by MTT assay; type: functional
BaF3 [11] = assay: Growth inhibition of mouse BAF3 cells harboring FLT3 ITD mutant assessed as reduction in cell inhibition measured after 72 hrs by MTT assay; type: functional
MOLM-13 [12] = assay: Growth inhibition of human MOLM-13 cells harboring FLT3 resistant inhibitor assessed as growth inhibition; type: functional
MV4-11 [13] = assay: Growth inhibition of human MV4-11 cells by WST-8 assay; type: functional
MOLM-13 [14] = assay: Growth inhibition of human MOLM-13 cells by WST-8 assay; type: functional
[15] = molecular target: Macrophage colony-stimulating factor 1 receptor (Homo sapiens, UniProt P07333); assay: Inhibition of FMS (unknown origin)
BaF3 [16] = assay: Growth inhibition of mouse BaF3 cells transfected in FLT3-ITD mutant measured after 72 hrs by CCK8 assay; type: functional
[17] = molecular target: Interleukin-1 receptor-associated kinase 1 (Homo sapiens, UniProt P51617); assay: Inhibition of IRAK-1 (unknown origin)
BaF3 [18] = assay: Growth inhibition of mouse BaF3 cells transfected in FLT3-TDK mutant measured after 72 hrs by CCK8 assay; type: functional

Chain of Macrophage colony-stimulating factor 1 receptor (P07333 whole entry): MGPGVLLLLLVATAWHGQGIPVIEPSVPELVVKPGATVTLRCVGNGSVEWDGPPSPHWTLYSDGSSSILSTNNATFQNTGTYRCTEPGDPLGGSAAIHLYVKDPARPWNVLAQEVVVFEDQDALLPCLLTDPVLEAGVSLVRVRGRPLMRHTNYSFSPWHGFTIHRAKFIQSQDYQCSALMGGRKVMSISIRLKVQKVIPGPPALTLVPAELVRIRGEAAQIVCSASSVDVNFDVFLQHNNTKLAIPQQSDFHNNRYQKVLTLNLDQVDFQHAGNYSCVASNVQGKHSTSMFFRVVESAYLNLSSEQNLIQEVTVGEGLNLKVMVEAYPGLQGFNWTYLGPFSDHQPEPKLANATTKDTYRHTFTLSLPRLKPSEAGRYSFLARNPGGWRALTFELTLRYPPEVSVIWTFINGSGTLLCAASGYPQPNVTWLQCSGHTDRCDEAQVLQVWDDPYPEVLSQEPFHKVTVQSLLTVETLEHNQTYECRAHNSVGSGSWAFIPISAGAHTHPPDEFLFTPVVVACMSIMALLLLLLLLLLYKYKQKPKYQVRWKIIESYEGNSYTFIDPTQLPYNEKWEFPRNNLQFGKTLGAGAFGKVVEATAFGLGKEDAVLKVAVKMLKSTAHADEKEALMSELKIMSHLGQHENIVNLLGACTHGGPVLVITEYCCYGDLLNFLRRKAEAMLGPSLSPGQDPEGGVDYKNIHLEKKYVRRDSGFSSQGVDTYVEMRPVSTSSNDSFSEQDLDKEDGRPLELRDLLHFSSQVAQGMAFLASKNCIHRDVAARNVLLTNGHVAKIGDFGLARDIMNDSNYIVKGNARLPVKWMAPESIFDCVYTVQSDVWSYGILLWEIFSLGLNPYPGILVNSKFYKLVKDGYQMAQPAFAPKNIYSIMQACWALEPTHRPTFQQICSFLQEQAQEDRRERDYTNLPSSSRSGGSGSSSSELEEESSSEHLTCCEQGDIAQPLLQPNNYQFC
Chain of Interleukin-1 receptor-associated kinase 1 (P51617 whole entry): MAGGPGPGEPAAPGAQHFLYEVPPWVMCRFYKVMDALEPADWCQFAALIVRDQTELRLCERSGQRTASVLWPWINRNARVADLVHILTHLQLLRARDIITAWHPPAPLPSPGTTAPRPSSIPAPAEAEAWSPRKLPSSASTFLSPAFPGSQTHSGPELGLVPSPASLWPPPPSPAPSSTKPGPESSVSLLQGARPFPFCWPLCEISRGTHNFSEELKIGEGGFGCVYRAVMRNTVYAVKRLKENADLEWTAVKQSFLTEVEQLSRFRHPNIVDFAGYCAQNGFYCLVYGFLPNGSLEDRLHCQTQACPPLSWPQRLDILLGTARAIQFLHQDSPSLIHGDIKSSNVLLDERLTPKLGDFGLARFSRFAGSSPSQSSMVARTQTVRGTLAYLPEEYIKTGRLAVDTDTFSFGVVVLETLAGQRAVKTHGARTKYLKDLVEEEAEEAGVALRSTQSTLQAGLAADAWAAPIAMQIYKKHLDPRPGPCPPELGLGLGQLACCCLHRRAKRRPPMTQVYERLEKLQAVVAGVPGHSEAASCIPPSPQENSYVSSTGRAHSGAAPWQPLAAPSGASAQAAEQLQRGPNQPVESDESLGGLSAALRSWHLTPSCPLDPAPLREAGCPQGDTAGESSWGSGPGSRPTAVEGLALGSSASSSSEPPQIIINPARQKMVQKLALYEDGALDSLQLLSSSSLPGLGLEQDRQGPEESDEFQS

`CCCNc1nc(Nc2ccc(C#N)cc2)ncc1C#CCCCNC(=O)[C@H](C)N(C)C(=O)/C=C/CN(C)C` [FF-10101] showed a GI50 [1] of 1.9 nM, a GI50 (MOLM-14) of 1.5 nM and a GI50 [2] of 0.81 nM. It also gave a GI50 [3] of 5.3 nM, a GI50 (Kasumi 1) of 26 nM and a GI50 [4] of 1.1 nM. The GI50 [5] was 10 nM, the GI50 (EOL1) was 72 nM and the GI50 [6] was 3.5 nM. For the same compound, the GI50 (MOLM-13 [7]) was 1.1 nM, the GI50 (K562) was > 1000 nM and the GI50 (MV4-11 [8]) was 0.83 nM. The GI50 (THP-1) was > 1000 nM.

Work on `CCc1nc(C(N)=O)c(Nc2ccc(N3CCC(N4CCN(C)CC4)CC3)c(OC)c2)nc1NC1CCOCC1` [GILTERITINIB] yielded a GI50 (BaF3 [9]) of 1.6 nM and a GI50 (BaF3 [10]) of 1.8 nM.

In the case of `C[C@]12O[C@H](C[C@]1(O)CO)n1c3ccccc3c3c4c(c5c6ccccc6n2c5c31)CNC4=O` [LESTAURTINIB], the GI50 (BaF3 [11]) is reported as 5 nM.

`C1=N/C2=N/c3ccc(OCCN4CCCC4)c(c3)COC/C=C/COCc3cccc(c3)C(=C1)N2` [PACRITINIB] gave a GI50 (MOLM-13 [12]) of 173 nM, a GI50 (MV4-11 [13]) of 33 nM and a GI50 (MOLM-13 [14]) of 73 nM. For the same compound, the IC50 [15] was 39.5 nM, the GI50 (BaF3 [16]) was 133 nM and the IC50 [17] was 13.6 nM. The GI50 (BaF3 [18]) was < 434 nM.
